Results from the supplement of paper PMC12282887.

Key:
Experiment in all cases: fitness (OD AUC treated / untreated) (fraction); higher = more growth
[1] = test system: E. coli BW25113 Drob + rob
Method: (§1)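 MIC curves of ciprofloxacin or amoxicillin, with or without 55.5 µg/ml caffeine, against E. coli BW25113 wild type, deletion mutants (ΔmicF, ΔompF, Δrob) and complemented strains. Assays ran in LB at 37°C in 96/384-well plates. Fitness is the OD600 AUC over 8 h divided by the no-drug control; 3-4 biological replicates.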

E. coli BW25113 Drob = test system: E. coli BW25113 Drob
Method: as §1

E. coli BW25113 WT = test system: E. coli BW25113 WT
Method: as §1

[2] = test system: E. coli BW25113 DmicF + micF
Method: as §1

E. coli BW25113 DmicF = test system: E. coli BW25113 DmicF
Method: as §1

[3] = test system: E. coli BW25113 DompF + ompF
Method: as §1

CC1(C)S[C@@H]2[C@H](NC(=O)[C@H](N)c3ccc(O)cc3)C(=O)N2[C@H]1C(=O)O [Amoxicillin]
fitness
Settings	E. coli BW25113 Drob	E. coli BW25113 WT	[1]
antibiotic concentration 0.72727 µg/ml, caffeine concentration 0 µg/ml	1.06	1.02	1.04
antibiotic concentration 0.72727 µg/ml, caffeine concentration 55.4857 µg/ml	0.954	0.986	0.988
antibiotic concentration 1.45455 µg/ml, caffeine concentration 0 µg/ml	1.067	1.03	1.098
antibiotic concentration 1.45455 µg/ml, caffeine concentration 55.4857 µg/ml	0.96	0.995	1.013
antibiotic concentration 2.18182 µg/ml, caffeine concentration 0 µg/ml	0.956	1.01	1.06
antibiotic concentration 2.18182 µg/ml, caffeine concentration 55.4857 µg/ml	0.8209	1.02	1
antibiotic concentration 2.90909 µg/ml, caffeine concentration 0 µg/ml	0.233	0.791	0.381
antibiotic concentration 2.90909 µg/ml, caffeine concentration 55.4857 µg/ml	0.207	1.07	0.976
antibiotic concentration 3.63636 µg/ml, caffeine concentration 0 µg/ml	0.107	0.246	0.156
antibiotic concentration 3.63636 µg/ml, caffeine concentration 55.4857 µg/ml	0.0967	0.971	0.653
antibiotic concentration 4.36364 µg/ml, caffeine concentration 0 µg/ml	0.0398	0.114	0.0865
antibiotic concentration 4.36364 µg/ml, caffeine concentration 55.4857 µg/ml	0.0126	0.637	0.219
antibiotic concentration 5.09091 µg/ml, caffeine concentration 0 µg/ml	4.88e-05	0.0723	0.0167
antibiotic concentration 5.09091 µg/ml, caffeine concentration 55.4857 µg/ml	0.000488	0.251	0.113
antibiotic concentration 5.81818 µg/ml, caffeine concentration 0 µg/ml	0	0.0283	0
antibiotic concentration 5.81818 µg/ml, caffeine concentration 55.4857 µg/ml	0	0.133	0.0601
antibiotic concentration 6.54545 µg/ml, caffeine concentration 0 µg/ml	0	0	0
antibiotic concentration 6.54545 µg/ml, caffeine concentration 55.4857 µg/ml	0	0.0838	0.00196
antibiotic concentration 7.27273 µg/ml, caffeine concentration 0 µg/ml	0	0	0
antibiotic concentration 7.27273 µg/ml, caffeine concentration 55.4857 µg/ml	0.000488	0.0273	0
antibiotic concentration 8 µg/ml, caffeine concentration 0 µg/ml	0	0	0
antibiotic concentration 8 µg/ml, caffeine concentration 55.4857 µg/ml	0	0.00395	0.000108

O=C(O)c1cn(C2CC2)c2cc(N3CCNCC3)c(F)cc2c1=O [Ciprofloxacin]
fitness
Settings	E. coli BW25113 DmicF	E. coli BW25113 Drob	E. coli BW25113 WT	[2]	[3]
antibiotic concentration 0.00227 µg/ml, caffeine concentration 0 µg/ml	0.916	1.07	1.07	1.05	–
antibiotic concentration 0.00227 µg/ml, caffeine concentration 55.4857 µg/ml	0.927	0.883	0.995	–	–
antibiotic concentration 0.00455 µg/ml, caffeine concentration 0 µg/ml	0.793	0.845	0.987	1.01	–
antibiotic concentration 0.00455 µg/ml, caffeine concentration 55.4857 µg/ml	0.867	0.887	0.986	–	–
antibiotic concentration 0.00682 µg/ml, caffeine concentration 0 µg/ml	0.625	0.754	0.99	0.985	–
antibiotic concentration 0.00682 µg/ml, caffeine concentration 55.4857 µg/ml	0.684	0.733	1	0.99	–
antibiotic concentration 0.00909 µg/ml, caffeine concentration 0 µg/ml	0.435	0.641	0.891	0.876	–
antibiotic concentration 0.00909 µg/ml, caffeine concentration 55.4857 µg/ml	–	0.619	0.953	0.941	–
antibiotic concentration 0.01136 µg/ml, caffeine concentration 0 µg/ml	0.232	0.42	0.766	0.679	–
antibiotic concentration 0.01136 µg/ml, caffeine concentration 55.4857 µg/ml	–	0.383	0.938	0.798	–
antibiotic concentration 0.01364 µg/ml, caffeine concentration 0 µg/ml	0.153	0.266	0.58	0.381	0.748
antibiotic concentration 0.01364 µg/ml, caffeine concentration 55.4857 µg/ml	–	0.199	0.82	0.571	0.89
antibiotic concentration 0.01591 µg/ml, caffeine concentration 0 µg/ml	0.0556	0.143	0.448	0.154	–
antibiotic concentration 0.01591 µg/ml, caffeine concentration 55.4857 µg/ml	–	0.114	0.728	0.329	–
antibiotic concentration 0.01818 µg/ml, caffeine concentration 0 µg/ml	0.017	0.0644	0.304	0.0704	–
antibiotic concentration 0.01818 µg/ml, caffeine concentration 55.4857 µg/ml	–	0.0408	0.607	0.207	–
antibiotic concentration 0.02045 µg/ml, caffeine concentration 0 µg/ml	0.0088	0.0847	0.192	0.0466	0.541
antibiotic concentration 0.02045 µg/ml, caffeine concentration 55.4857 µg/ml	–	0.0665	0.482	0.119	0.771
antibiotic concentration 0.02273 µg/ml, caffeine concentration 0 µg/ml	0.00491	0.0851	0.101	0.045	–
antibiotic concentration 0.02273 µg/ml, caffeine concentration 55.4857 µg/ml	0.00595	0.0576	0.374	0.0506	–
antibiotic concentration 0.025 µg/ml, caffeine concentration 0 µg/ml	0	0.0782	0.0921	0.0379	–
antibiotic concentration 0.025 µg/ml, caffeine concentration 55.4857 µg/ml	0	0.0414	0.276	0.0446	–
antibiotic concentration 0.02727 µg/ml, caffeine concentration 0 µg/ml	–	–	–	–	0.238
antibiotic concentration 0.02727 µg/ml, caffeine concentration 55.4857 µg/ml	–	–	–	–	0.558
antibiotic concentration 0.03409 µg/ml, caffeine concentration 0 µg/ml	–	–	–	–	0.0975
antibiotic concentration 0.03409 µg/ml, caffeine concentration 55.4857 µg/ml	–	–	–	–	0.359
antibiotic concentration 0.04091 µg/ml, caffeine concentration 0 µg/ml	–	–	–	–	0.039
antibiotic concentration 0.04091 µg/ml, caffeine concentration 55.4857 µg/ml	–	–	–	–	0.194
antibiotic concentration 0.04773 µg/ml, caffeine concentration 0 µg/ml	–	–	–	–	0.032
antibiotic concentration 0.04773 µg/ml, caffeine concentration 55.4857 µg/ml	–	–	–	–	0.102
antibiotic concentration 0.05455 µg/ml, caffeine concentration 0 µg/ml	–	–	–	–	0.0267
antibiotic concentration 0.05455 µg/ml, caffeine concentration 55.4857 µg/ml	–	–	–	–	0.0511
antibiotic concentration 0.06136 µg/ml, caffeine concentration 0 µg/ml	–	–	–	–	0.0262
antibiotic concentration 0.06136 µg/ml, caffeine concentration 55.4857 µg/ml	–	–	–	–	0.0404
antibiotic concentration 0.06818 µg/ml, caffeine concentration 0 µg/ml	–	–	–	–	0.0324
antibiotic concentration 0.06818 µg/ml, caffeine concentration 55.4857 µg/ml	–	–	–	–	0.0403
antibiotic concentration 0.075 µg/ml, caffeine concentration 0 µg/ml	–	–	–	–	0.0312
antibiotic concentration 0.075 µg/ml, caffeine concentration 55.4857 µg/ml	–	–	–	–	0.0317
